Measured values: patent US5213788A, “Physically and chemically stabilized polyatomic clusters for magnetic resonance image and spectral enhancement” (priority 1991, dated 1993)

Tests used:
red cells = details: cited from earlier work
VX2 carcinomas = test: Histochemical platinum stain of tumor tissues after intraarterial perfusion; format: in vivo, rabbit; details: selective arterial perfusion
Procedure: At 5 to 15 minutes postinjection, the animals were sacrificed, their lungs removed and fixed with intratracheal buffered formalin, tissue sections cut at 8 microns thickness, and the sections stained using a newly devised method for platinum which comprises a microwave-augmented iron-type stain (60° C.×2 minute×3 cycles) using a 1:1 mixture of 2% ferriferrocyanide reagent and 4% HCl. […] To those skilled in the art, additional evidence for selective lung localization, was obtained by injecting intravenously, analogous (subembolizing) heparincoated small microparticles containing encapsulated amphotericin B, into identical mice, homogenizing the lungs, and documenting an 8-fold increment in drug levels over native amphotericin B (deoxycholate formulation, Fungizone; Squibb) recovered at 1 to 3 hours postinjection.
(§1) Additional documentation for maintenance of the cisplatin-carrier paired-ion complex in vivo was obtained as follows. […] Animals were sacrificed at 15 minutes, and the tumors and organs were homogenized extracted and analyzed by atomic absorption for tissue platinum concentrations, as shown in Table 1.
Additionally, histochemical platinum stains were performed on the tumor tissues, as described in Example 7.
Microinhomogeneities of tissue heating represent a major problem in hyperthermia treatment of tumors. […]

CBA/J mice = test: Tetany / toxicity following intravenous injection; format: in vivo; details: 10 mg/25 gm body weight
[1] = Complexation of exogenously added calcium ions (ionized calcium analyzer); format: binding
[2] = tested on: VX2 carcinomas of the right hind limb; test: Tissue platinum content by atomic absorption after selective intraarterial perfusion; format: in vivo; details: 15 mg cisplatin per rabbit intraarterially over 15 minutes
Procedure: as §1

[3] = Blood and total body clearance; format: in vivo
[4] = usually; cited from earlier work
[5] = small-molecular contrast agents; cited from earlier work
[6] = tested on: BRO-strain human malignant melanomas; test: MR imaging of human malignant melanoma xenografts; format: in vivo, human tumor in Swiss nude mice
Procedure: The strong paramagnetic metal ion, gadolinium (Gd^+3), was chelated stoichiometrically to DTPA-Dextran 70 polymer, whose preparation is described in Example 1, paragraph 2 (improved formulation). Swiss nude mice were inoculated with BRO-strain human malignant melanomas, and these were allowed to grow to a 1-1.5 cm diameter. Moderately T1-weighted MR imaging (TR=500 msec, TE=40 msec) was performed in a standard Diasonics™ medical imager and a 30-cm RF head coil, before and after intravenous injection of equivalent doses of Gd-DTPA-Dextran-70 (0.03 mmol Gd/kg) or Gd-DTPA (0.1 mmol/kg) contrast agent. […] It will also be recognized that much lower doses of the stronger superparamagnetics (including doses below about 0.01 mmol/kg, versus 0.1 mmol/kg for Gd-DTPA) can be used to obtain effective MRI contrast enhancement; and that much faster, more heavily T1-weighted pulse sequences can be implemented in the presence of intramolecularly superparamagnetic polyatomic complex-carrier polymer conjugates or paired-ion complexes.

tumor interstitium = details: in vivo; cited from earlier work
malignant breast tumor = details: by 30 minutes postcontrast; cited from earlier work

## [O]=[51Cr](=[O])([O-])[O-] [^51 Chromium, ^51 CrO4^-2]
Red cells
  Average rate of elution from red cells: 0.93 % per day

## N.N.[Cl][Pt][Cl] [cisplatin, cis-dichlorodiamine platinum]
VX2 carcinomas
  Intracellular tumor-cell platinum staining: aggregated staining was absent

## Cisplatin-DTPA-Dextran (70,000 MW) [DTPA-dextran cisplatin]
CBA/J mice
  Tetany / toxicity following intravenous injection: elimination of tetany
[1]
  Complexation of exogenously added calcium ions by the DTPA groups: reduction in the complexation of exogenously added calcium ions
[2]
  Platinum content, Kidney: 2.92 ng/mg of tissue, wet weight
  Platinum content, Liver: 3.47 ng/mg of tissue, wet weight
[2]; Ipsilateral
  Platinum content, Blood: 2.14 ng/mg of tissue, wet weight
  Platinum content, Muscle: 0.29 ng/mg of tissue, wet weight
  Platinum content, Tumor: 10.81 ng/mg of tissue, wet weight

## gadolinium diethylenetriamine pentaacetic acid [Gd-DTPA]
[3]
  Blood clearance t1/2: 20 min
[4]
  Retained fraction: less than 0.5%
[5]
  Initial biodistribution, share of total body water: ca. 35%
[6]; by one hour, 0.1 mmol/kg
  Fading of tumor enhancement: completely faded
[6]; intravenous, Gd-DTPA-dextran 0.03 mmol Gd/kg, Gd-DTPA 0.1 mmol/kg
  Time to begin to optimally enhance the tumors: 10 min
Tumor interstitium
  Retention in tumor interstitium: 10 to 45 min

## gadolinium diethylenetriamine pentaacetic acid dimeglumine [Gd-DTPA dimeglumine]
Malignant breast tumor
  Tumor fading, in words: almost complete fading (tumor clearance)
